In patent US20150250925A1, “[…] TISSUE, […] MODEL AND MANUFACTURING METHOD THEREFOR” (priority 2012, published 2015):

Experiments:
Format in all cases: cell-based, human
[1] = test system: dermal tissue layer with NHDF, NHDMEC and MoDC; assay: CLSM observation of dermal tissue layer of Reference Example 2 after LPS addition; settings: 1 μg/ml LPS, 30 hours after addition; FIG. 5
Description: NHDF coated cells were seeded and cultured so that the NHDF were arranged in 4 layers. Then, NHDMEC (human dermal microvascular endothelial cells) coated cells were seeded and cultured on top of the NHDF layers so that the NHDMEC were arranged in 1 layer. Moreover, NHDF coated cells were seeded and cultured on the NHDMEC layer so that the NHDF were arranged in 4 layers. These layered cells were cultured in 2.3 ml of DMEM containing 10% FBS for 3 days. Subsequently, 5×10^4 MoDC were seeded and cultured in 2.3 ml of DMEM containing 10% FBS for 1 day. Thus, a dermal tissue layer was formed. The dermal tissue layer was placed in the insert, to which 1 μg/ml LPS was added. The dermal tissue layer was observed by a confocal laser scanning microscope for 30 hours.
FIG. 5 is an example of a confocal laser scanning microscope (CLSM) image taken 30 hours after the addition of the LPS. […] Although the details of this are not clear, it is known that the dendritic cells are transferred to the lymphatic vessels when they are activated by an antigen in a living body. […] Moreover, it has been reported that, in a living body, a CC chemokine receptor 7 is expressed in the activated dendritic cells, while CC chemokine ligands 21, 19, which are ligands of the CC chemokine receptor 7, are produced in the lymphatic vessels. […]

[2] = test system: dermal tissue layer (without dendritic cells); assay: Immune response evaluation: IL-6 ELISA after LPS addition, dermal tissue layer without dendritic cells; settings: LPS 0, 1, 10, 100 or 1000 ng/ml, 24 hours; layer does not include dendritic cells; FIG. 3
Description: (§1) A dermal tissue layer including dendritic cells was prepared in the same manner as Example 1. The culture medium of the dermal tissue layer was changed to DMEM containing 10% FBS (the inside of the insert: 30 μl, the outside of the insert: 1 ml). Lipopolysaccharide (LPS, produced by Sigma-Aldrich Co. LLC.) was added to the inside of the insert and incubated for 24 hours. Then, all the culture medium in the outside of the insert was collected, and interleukin (IL)-6 was quantified by enzyme-linked immunosorbent assay (ELISA (R & D, D6056)). The concentration of the lipopolysaccharide was 0, 1, 10, 100, or 1000 ng/ml.
A dermal tissue layer (without dendritic cells) was prepared in the same manner as Example 1 except that “only the NHDF coated cells” were used instead of “a mixture of the NHDF coated cells and the MoDC coated cells”. Using the dermal tissue layer, an immune response was evaluated in the same manner as described above.
(§2) FIG. 3 is an example of a graph showing the relationship between the amount of LPS added and the amount of IL-6 produced from the dermal tissue layer.

[3] = test system: dermal tissue layer including dendritic cells; assay: Immune response evaluation: IL-6 ELISA after LPS addition, dermal tissue layer including dendritic cells; settings: 24 hours, FIG. 3
Description: as §1, §2

[4] = test system: artificial skin model including the epidermal layer; assay: Immune response evaluation: IL-6 ELISA after LPS addition, artificial skin model of Example 4; settings: LPS 0-1000 ng/ml, 24 hours, FIG. 4
Description: as §1
First, a dermal tissue layer was prepared in the same manner as Example 1 and immersed in a 50 mM Tris-HCl solution (pH=7.4) containing collagen IV for 20 minutes, so that the dermal tissue layer was coated with collagen W Then, 1.8×10^5 KC were seeded and cultured in an adherent culture medium for 2 days. Subsequently, the KC were exposed to the air-liquid interface of a keratinized medium (multi-layered medium) for 7 days to induce differentiation, and thus an artificial skin model was prepared.
Using the artificial skin model, an immune response was evaluated in the same manner as Reference Example 1. […] FIG. 4 is an example of a graph showing the relationship between the amount of LPS added and the amount of IL-6 produced from the dermal tissue layer. […]

Lipopolysaccharide [LPS] was tested, and the “overlap between dendritic cells and NHDMEC (CLSM image)” value [1] was “state of overlap between the dendritic cells and the NHDMEC after the addition of the LPS is observed”, the “amount of IL-6 produced from the dermal tissue layer” value [2] was “increases with an increase in the amount of LPS added” and the “amount of IL-6 produced from the dermal tissue layer” value ([3]; LPS 0, 1, 10, 100 or 1000 ng/ml, layer includes dendritic cells) was “increases with an increase in the amount of LPS added”. For the same substance, the “amount of IL-6 produced, layer with dendritic cells compared to layer without” value ([3]; LPS 0-1000 ng/ml) was “increases significantly” and the “amount of IL-6 produced” value [4] was “does not change with the amount of LPS added”.
